Experimental data from ChEMBL document CHEMBL1201862, “PubChem BioAssay data set” (2004).
Calls of active or inactive are those of the source.

Assays:
[1] = biological target: NAD-dependent protein deacylase sirtuin-5, mitochondrial (Homo sapiens, UniProt Q9NXA8); assay: SIRT5 desuccinylase inhibitors, dose response, biochemical, fluorescence imaging, cherry-pick, set 5 (AID 720591);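 note: desuccinylation of succinyl peptide AMC substrate read as fluorescence after trypsin release; potency of inhibitors that lower fluorescence and may act on trypsin instead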
[2] = biological target: T1, DNA repair and recombination protein RAD54-like (Homo sapiens, UniProt Q92698); assay: inhibitors of human RAD54 branch migration, confirmation, biochemical, fluorescence, cherry-picked samples, dose series (AID 651657); assay type: functional
T1 sequence (Q92698 whole entry): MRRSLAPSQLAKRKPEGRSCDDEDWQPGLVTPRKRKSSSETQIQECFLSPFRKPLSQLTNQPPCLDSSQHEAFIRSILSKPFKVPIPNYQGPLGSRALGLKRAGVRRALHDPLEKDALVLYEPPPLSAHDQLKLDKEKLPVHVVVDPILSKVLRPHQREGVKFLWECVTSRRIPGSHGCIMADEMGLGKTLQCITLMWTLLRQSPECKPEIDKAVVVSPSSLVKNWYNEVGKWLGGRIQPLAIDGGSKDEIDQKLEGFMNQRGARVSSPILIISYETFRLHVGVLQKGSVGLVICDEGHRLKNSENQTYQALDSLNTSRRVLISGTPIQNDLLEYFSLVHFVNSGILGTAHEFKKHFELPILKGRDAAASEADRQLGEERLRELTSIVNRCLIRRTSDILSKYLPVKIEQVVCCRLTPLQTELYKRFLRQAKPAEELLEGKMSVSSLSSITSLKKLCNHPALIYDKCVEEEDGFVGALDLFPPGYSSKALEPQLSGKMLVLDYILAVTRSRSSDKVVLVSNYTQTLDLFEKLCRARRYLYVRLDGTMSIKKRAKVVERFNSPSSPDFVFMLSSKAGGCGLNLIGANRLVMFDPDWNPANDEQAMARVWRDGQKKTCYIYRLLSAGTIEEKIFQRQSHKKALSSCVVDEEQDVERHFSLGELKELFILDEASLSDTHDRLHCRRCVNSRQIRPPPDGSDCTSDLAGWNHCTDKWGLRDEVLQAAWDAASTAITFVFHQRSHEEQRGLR

[3] = biological target: T2, Short transient receptor potential channel 4 (Mus musculus, UniProt Q9QUQ5); assay: mouse TRPC4 channel inhibitors, dose response, cell-based, HEK293 TRPC4/mu-opioid, Fluo-4 calcium (AID 434942); assay type: functional;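 note: potency of inhibitors blocking the TRPC4 calcium response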
T2 sequence (Q9QUQ5 whole entry): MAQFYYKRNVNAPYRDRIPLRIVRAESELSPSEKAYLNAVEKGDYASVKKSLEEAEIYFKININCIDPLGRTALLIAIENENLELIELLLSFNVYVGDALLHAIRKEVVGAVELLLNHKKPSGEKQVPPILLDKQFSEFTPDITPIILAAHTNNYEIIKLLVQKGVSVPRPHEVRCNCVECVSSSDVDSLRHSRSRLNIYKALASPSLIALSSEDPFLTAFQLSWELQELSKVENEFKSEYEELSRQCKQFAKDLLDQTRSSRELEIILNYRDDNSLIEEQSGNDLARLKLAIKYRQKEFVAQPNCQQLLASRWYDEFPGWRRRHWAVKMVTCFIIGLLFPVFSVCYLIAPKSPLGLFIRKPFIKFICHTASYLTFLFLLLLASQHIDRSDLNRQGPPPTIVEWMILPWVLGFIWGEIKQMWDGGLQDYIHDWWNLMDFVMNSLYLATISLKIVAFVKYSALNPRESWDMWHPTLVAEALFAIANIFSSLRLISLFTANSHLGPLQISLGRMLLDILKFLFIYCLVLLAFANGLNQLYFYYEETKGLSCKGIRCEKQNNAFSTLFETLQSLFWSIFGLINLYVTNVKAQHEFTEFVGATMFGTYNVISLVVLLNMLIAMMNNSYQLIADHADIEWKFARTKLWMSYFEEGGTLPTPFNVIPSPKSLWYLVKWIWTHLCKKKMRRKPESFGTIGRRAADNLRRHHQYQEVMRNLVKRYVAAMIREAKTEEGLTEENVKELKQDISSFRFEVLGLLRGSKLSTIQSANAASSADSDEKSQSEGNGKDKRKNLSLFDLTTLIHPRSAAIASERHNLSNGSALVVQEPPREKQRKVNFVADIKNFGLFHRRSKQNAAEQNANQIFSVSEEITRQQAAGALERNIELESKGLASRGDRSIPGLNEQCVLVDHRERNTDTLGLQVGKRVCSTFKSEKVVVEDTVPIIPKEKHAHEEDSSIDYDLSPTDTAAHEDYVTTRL

[4] = inhibitors of PGC1a acetylation in cells, dose response, cell-based, cherry-picked samples (AID 720514); assay type: functional;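 note: potency may reflect raised or lowered acetylation signal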
[5] = HepG2 cell cytotoxicity, dose response, cytotoxicity control, plate reader, dry powder samples (AID 1159569); assay type: functional, cell-based;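 note: inhibitor potency with signal falling toward the positive control level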
[6] = P. falciparum Dd2 growth inhibitors, dose response, SYBR Green, dry powder samples (AID 1159566); assay type: functional, cell-based;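 note: potency for growth inhibition with lower SYBR green DNA signal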
[7] = P. falciparum ATP4 D1247Y mutant growth inhibitors, dose response, NITD609-resistant line, SYBR Green, dry powder (AID 1159571); assay type: functional, cell-based;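 note: parasites synchronized at ring stage by sorbitol before testing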
[8] = P. falciparum 3D7-ScDHODH growth inhibitors, dose response, SYBR Green, dry powder samples (AID 1159570); assay type: functional, cell-based;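 note: parasite growth measured after 72 hours of compound exposure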
[9] = P. falciparum Dd2 growth inhibitors, dose response, SYBR Green, cherry-picked samples (AID 1159567); assay type: functional, cell-based
Paired box protein Pax-8 = Paired box protein Pax-8 (Homo sapiens, UniProt Q06710); assay: inhibitors of PAX8-driven TPO luciferase reporter, dose response, RMG-I cells, cherry-pick (AID 687027); assay type: functional, cell-based;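 note: luciferase reporter driven by Pax8 target thyroperoxidase promoter measured by SteadyGlo luminescence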
[10] = NIH:OVCAR-3 ovarian cancer cell cytotoxicity, dose response, PAX8 inhibitor project, plate reader, dry powder samples (AID 743044); assay type: functional, cell-based
Caspase-3 = biological target: T3, Caspase-3 (Homo sapiens, UniProt P42574); assay type: functional;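 note: Dose-response selectivity test against caspase-3 for candidate inhibitors of sentrin-specific proteases (SENPs)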
T3 sequence (P42574 whole entry): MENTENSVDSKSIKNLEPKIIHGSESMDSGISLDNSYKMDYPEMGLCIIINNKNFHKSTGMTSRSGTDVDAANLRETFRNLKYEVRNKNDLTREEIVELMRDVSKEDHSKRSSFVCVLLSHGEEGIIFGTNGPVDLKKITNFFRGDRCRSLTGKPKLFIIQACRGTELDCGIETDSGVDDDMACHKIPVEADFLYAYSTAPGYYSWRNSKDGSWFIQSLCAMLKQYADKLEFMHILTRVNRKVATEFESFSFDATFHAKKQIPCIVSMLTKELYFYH

[11] = biological target: T4, Oxysterols receptor LXR-beta (Homo sapiens, UniProt P55055); assay type: functional, cell-based
T4 sequence (P55055 whole entry): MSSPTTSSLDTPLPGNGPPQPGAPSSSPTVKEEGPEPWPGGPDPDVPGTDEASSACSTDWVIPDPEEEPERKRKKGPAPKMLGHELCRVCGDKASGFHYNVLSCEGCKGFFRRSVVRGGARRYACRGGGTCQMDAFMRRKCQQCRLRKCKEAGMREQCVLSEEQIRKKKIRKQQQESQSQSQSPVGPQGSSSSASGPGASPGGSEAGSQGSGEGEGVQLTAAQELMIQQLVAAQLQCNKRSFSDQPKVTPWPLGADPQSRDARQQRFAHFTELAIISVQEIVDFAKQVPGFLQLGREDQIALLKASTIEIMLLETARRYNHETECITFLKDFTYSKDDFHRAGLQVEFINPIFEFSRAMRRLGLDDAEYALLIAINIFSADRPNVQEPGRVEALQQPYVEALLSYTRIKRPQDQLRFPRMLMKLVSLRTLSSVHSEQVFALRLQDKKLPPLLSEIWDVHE

[12] = biological target: T5, Sentrin-specific protease 8 (Homo sapiens, UniProt Q96LD8); assay type: functional;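 note: luminescence read-out of SENP8 inhibition, dose-response confirmation following an ultra-high-throughput screen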
T5 sequence (Q96LD8 whole entry): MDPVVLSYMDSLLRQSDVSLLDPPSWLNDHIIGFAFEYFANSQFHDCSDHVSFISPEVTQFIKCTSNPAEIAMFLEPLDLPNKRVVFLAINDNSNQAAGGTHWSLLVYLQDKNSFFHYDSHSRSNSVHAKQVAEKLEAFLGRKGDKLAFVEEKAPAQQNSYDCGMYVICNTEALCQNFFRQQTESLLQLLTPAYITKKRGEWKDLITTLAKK

[13] = biological target: T6, Sentrin-specific protease 7 (Homo sapiens, UniProt Q9BQF6); assay type: functional;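 note: Luminescence-based dose-response confirmation of ultra-high-throughput screening hits, measuring inhibition of SENP7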
T6 sequence (Q9BQF6 whole entry): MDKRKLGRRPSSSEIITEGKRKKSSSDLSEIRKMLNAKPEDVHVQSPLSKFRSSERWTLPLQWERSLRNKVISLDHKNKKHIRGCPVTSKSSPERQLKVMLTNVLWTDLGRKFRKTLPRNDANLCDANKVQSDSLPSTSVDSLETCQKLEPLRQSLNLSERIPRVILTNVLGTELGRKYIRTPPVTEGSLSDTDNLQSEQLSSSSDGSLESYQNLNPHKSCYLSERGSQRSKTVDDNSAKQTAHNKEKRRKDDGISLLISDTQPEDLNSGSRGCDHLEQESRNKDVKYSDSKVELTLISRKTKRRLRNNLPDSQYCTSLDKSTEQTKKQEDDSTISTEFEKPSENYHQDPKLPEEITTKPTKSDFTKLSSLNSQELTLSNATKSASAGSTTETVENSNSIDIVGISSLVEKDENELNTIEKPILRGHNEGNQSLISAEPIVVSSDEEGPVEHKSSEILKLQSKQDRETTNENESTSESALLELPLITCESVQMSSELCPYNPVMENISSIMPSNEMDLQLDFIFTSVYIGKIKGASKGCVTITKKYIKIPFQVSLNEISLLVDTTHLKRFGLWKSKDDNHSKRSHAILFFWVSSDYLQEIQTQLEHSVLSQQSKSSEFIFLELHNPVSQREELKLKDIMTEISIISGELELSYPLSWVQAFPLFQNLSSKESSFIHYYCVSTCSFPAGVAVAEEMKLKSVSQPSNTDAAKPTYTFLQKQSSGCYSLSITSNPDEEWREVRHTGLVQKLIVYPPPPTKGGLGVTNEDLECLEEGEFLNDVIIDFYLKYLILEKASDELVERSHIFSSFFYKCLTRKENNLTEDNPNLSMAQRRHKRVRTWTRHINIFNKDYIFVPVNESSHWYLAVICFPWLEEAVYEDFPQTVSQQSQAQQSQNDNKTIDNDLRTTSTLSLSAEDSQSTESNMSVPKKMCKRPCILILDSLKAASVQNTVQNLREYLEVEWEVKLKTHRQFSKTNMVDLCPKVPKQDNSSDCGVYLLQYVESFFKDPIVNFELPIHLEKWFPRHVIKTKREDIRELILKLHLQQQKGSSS

[14] = biological target: T4, Oxysterols receptor LXR-beta; assay type: functional, cell-based; remark: listed apart in the source
[15] = biological target: T7, Sentrin-specific protease 6 (Homo sapiens, UniProt Q9GZR1); assay type: functional;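 note: Luminescence-based dose-response confirmatory assay of SENP6 inhibition, following up an ultra-high-throughput screen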
T7 sequence (Q9GZR1 whole entry): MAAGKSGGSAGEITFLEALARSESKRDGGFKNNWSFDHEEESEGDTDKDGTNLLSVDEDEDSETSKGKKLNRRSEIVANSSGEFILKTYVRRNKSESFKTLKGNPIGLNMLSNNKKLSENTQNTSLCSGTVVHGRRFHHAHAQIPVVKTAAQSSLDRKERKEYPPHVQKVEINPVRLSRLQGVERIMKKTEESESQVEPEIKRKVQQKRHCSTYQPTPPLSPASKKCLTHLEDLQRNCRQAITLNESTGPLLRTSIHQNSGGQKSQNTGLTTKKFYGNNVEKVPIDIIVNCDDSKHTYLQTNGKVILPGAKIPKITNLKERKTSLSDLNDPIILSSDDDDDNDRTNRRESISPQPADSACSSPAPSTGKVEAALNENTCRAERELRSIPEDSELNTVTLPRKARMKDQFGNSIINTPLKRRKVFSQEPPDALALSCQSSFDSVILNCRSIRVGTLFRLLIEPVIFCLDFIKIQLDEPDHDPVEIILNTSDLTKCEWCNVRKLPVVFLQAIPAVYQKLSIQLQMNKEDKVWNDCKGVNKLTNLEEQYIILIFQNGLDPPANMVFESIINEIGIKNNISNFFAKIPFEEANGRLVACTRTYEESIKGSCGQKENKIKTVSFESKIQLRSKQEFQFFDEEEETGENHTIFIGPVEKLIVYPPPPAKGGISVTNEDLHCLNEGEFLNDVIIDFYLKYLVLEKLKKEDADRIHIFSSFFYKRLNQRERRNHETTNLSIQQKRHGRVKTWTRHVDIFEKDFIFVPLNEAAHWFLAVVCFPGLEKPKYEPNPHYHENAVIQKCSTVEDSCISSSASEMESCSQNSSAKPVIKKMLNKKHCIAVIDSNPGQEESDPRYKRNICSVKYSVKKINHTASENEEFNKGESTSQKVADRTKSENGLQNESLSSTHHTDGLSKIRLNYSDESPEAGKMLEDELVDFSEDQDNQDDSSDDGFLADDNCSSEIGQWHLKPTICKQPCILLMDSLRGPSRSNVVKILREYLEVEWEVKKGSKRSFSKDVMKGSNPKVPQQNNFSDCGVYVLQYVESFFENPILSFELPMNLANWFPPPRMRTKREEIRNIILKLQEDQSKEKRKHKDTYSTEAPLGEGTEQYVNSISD

[16] = A375 melanoma cell viability loss, dose response, counter-screen for MITF inhibitor project, CellTiter-Glo luminescence, dry powder, set 4 (AID 624364); assay type: functional, cell-based; settings: A-375;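 note: A375 melanoma cells are MITF independent so this is a counter screen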
[17] = A375 melanoma cell cytotoxicity, dose response, counter-screen for MITF inhibitor project, CellTiter-Glo luminescence, dry powder, set 2 (AID 624489); assay type: functional, cell-based; settings: A-375;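 note: actives are compounds lowering A375 viability meaning general cytotoxicity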

Chain of NAD-dependent protein deacylase sirtuin-5, mitochondrial (Q9NXA8 whole entry): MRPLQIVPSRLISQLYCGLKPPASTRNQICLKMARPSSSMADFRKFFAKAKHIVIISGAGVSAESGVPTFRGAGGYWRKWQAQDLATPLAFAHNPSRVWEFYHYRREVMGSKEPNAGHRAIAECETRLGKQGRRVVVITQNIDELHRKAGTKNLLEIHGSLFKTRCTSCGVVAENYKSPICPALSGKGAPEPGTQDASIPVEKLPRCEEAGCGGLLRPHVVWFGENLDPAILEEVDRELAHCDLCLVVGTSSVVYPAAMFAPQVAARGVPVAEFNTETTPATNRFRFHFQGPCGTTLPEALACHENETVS
Chain of Paired box protein Pax-8 (Q06710 whole entry): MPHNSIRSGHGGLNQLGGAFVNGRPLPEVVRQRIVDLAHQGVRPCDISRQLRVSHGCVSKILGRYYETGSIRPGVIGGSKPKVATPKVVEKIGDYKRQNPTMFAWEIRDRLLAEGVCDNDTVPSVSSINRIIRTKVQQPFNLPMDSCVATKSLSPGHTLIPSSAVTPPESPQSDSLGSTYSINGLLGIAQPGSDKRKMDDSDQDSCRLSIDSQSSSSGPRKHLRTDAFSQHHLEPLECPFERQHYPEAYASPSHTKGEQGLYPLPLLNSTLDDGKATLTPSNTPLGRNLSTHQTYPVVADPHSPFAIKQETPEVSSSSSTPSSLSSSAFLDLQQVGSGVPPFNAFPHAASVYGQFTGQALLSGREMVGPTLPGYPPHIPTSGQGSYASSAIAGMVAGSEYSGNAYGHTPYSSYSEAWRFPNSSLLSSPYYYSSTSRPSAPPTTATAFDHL

Cc1ccc(Nc2cc(C)nc3c(C)cccc23)cc1
AC50 [1]: > 30 µM (inactive)
AC50 [2]: 34.4 µM (active)
EC50 [3]: 0.531 µM (active)

CCOC(=O)Cc1csc(NC(=O)Cn2cnc3c2c(=O)n(C)c(=O)n3C)n1
AC50 [1]: > 30 µM (inactive)

C[C@@H]1CN([C@H](C)CO)C(=O)c2cccc(NC(=O)c3nc4ccccc4s3)c2O[C@@H]1CN(C)CC1CCCCC1
AC50 [4]: 27.1 µM (active)

N#C[C@@H]1[C@@H](c2ccc(C#Cc3ccc(F)cc3)cc2)[C@H](CO)N1C(=O)C1CCCC1
AC50 [5]: 25.5 µM (active)
AC50 [6]: 1.52 µM (active)
AC50 [7]: 1.99 µM (active)
AC50 [8]: 1.82 µM (active)
AC50 [9]: 2.53 µM (active)

C[C@H]1CN([C@@H](C)CO)C(=O)Cc2cc(NC(=O)Nc3ccc(F)cc3)ccc2O[C@H]1CN(C)Cc1ccc(Cl)c(Cl)c1
AC50 (Paired box protein Pax-8): 7.04 µM (active)
AC50 [10]: 32.5 µM (active)

Cc1ccc(-c2n[nH]c(Nc3ccccc3)n2)cc1
EC50 (cells): > 67.5 µM (inactive)

Cc1ccc(-c2nnc(Nc3ccccc3)[nH]2)cc1
IC50 (Caspase-3): 40.4 µM (active)
EC50 [11]: > 67.5 µM (inactive)
IC50 [12]: > 100 µM (inactive)
IC50 [13]: 7.36 µM (active)
EC50 [14]: > 67.5 µM (inactive)
IC50 [15]: > 100 µM (inactive)

CN1CCN(C2=C(Nc3ccccc3)C(=O)c3ccccc3C2=O)CC1
AC50 [16]: 61.7 µM (active)
AC50 [17]: 24 µM (active)
